Laboratory results: patent US10806785B2, “Immunomodulator compounds and methods of use” (Incyte Corporation, priority 2016, dated 2020)

Target: PD-1/PD-L1 (Homo sapiens (Human), UniProt Q9NZQ7)
Assay: PD-1/PD-L1 binding assay (HTRF)
Procedure, shortened: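 HTRF read-out (665/620 nm) after 60 min at 25 °C with 1 nM Eu anti-human IgG and 20 nM APC anti-His. Beforehand, inhibitors were preincubated 40 min with Fc-PD-1 (25-167, […] as listed) and His-PD-L1 (19-238, 10 nM) in PBS pH 7.4 with Tween-20, BSA, 1% DMSO; IC50 from log-concentration curve.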

PD-1/PD-L1, sequence (Q9NZQ7 19-238): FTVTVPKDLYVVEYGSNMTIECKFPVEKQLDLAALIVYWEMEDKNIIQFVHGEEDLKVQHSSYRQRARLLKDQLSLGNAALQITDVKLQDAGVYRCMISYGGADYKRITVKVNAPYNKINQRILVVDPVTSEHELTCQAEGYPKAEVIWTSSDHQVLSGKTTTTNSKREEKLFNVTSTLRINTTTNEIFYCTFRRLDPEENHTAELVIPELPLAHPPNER

Compound	IC50
Cc1c(NC(=O)c2nc3c(n2C)CCN(C)C3)cccc1-c1cccc(NC(=O)c2nc3c(n2C)CCN(CC24CCC(C(=O)O)(CC2)C4)C3)c1Cl [Example 119, 4-((2-((2-chloro-3′-(1,5-dimethyl-4,5,6,7-tetrahydro-1H-imidazo[4,5-c]pyridine-2-carboxamido)-2′-methyl-[1,1′-biphenyl]-3-yl)carbamoyl)-1-methyl-1,4,6,7-tetrahydro-5H-imidazo[4,5-c]pyridin-5-yl)methyl)bicyclo[2.2.1]heptane-1-carboxylic acid]	≤ 10 nM
CCC1(C(=O)O)CCC(N2CCc3c(nc(C(=O)Nc4cccc(-c5cccc(NC(=O)c6nc7c(n6C)CCN(C)C7)c5C)c4Cl)n3C)C2)CC1 (stereo not shown) [Example 121, 4-(2-((2-chloro-3′-(1,5-dimethyl-4,5,6,7-tetrahydro-1H-imidazo[4,5-c]pyridine-2-carboxamido)-2′-methyl-[1,1′-biphenyl]-3-yl)carbamoyl)-1-methyl-1,4,6,7-tetrahydro-5H-imidazo[4,5-c]pyridin-5-yl)-1-ethylcyclohexane-1-carboxylic acid]	≤ 10 nM
Cc1c(NC(=O)c2nc3c(n2C)CCN(C2CCOCC2)C3)cccc1-c1cccc(NC(=O)c2nc3c(n2C)CCN(CC[C@H]2CC[C@H](C(=O)O)CC2)C3)c1Cl [Example 122, trans-4-(2-(2-((2-chloro-2′-methyl-3′-(1-methyl-5-(tetrahydro-2H-pyran-4-yl)-4,5,6,7-tetrahydro-1H-imidazo[4,5-c]pyridine-2-carboxamido)-[1,1′-biphenyl]-3-yl)carbamoyl)-1-methyl-1,4,6,7-tetrahydro-5H-imidazo[4,5-c]pyridin-5-yl)ethyl)cyclohexane-1-carboxylic acid]	≤ 10 nM
Cc1c(NC(=O)c2nc3c(n2C)CCN(C2CCOCC2)C3)cccc1-c1cccc(NC(=O)c2nc3c(n2C)CCN(C[C@H]2CC[C@H](C(=O)O)CC2)C3)c1Cl [Example 123, trans-4-((2-((2-chloro-2′-methyl-3′-(1-methyl-5-(tetrahydro-2H-pyran-4-yl)-4,5,6,7-tetrahydro-1H-imidazo[4,5-c]pyridine-2-carboxamido)-[1,1′-biphenyl]-3-yl)carbamoyl)-1-methyl-1,4,6,7-tetrahydro-5H-imidazo[4,5-c]pyridin-5-yl)methyl)cyclohexane-1-carboxylic acid]	≤ 10 nM
Cc1c(NC(=O)c2nc3c(n2C)CCN(C2CCOCC2)C3)cccc1-c1cccc(NC(=O)c2nc3c(n2C)CCN(CCc2ccc(C(=O)O)cc2)C3)c1Cl [Example 124, 4-(2-(2-((2-chloro-2′-methyl-3′-(1-methyl-5-(tetrahydro-2H-pyran-4-yl)-4,5,6,7-tetrahydro-1H-imidazo[4,5-c]pyridine-2-carboxamido)-[1,1′-biphenyl]-3-yl)carbamoyl)-1-methyl-1,4,6,7-tetrahydro-5H-imidazo[4,5-c]pyridin-5-yl)ethyl)benzoic acid]	≤ 10 nM
Cc1c(NC(=O)c2nc3c(n2C)CCN(C2CCOCC2)C3)cccc1-c1cccc(NC(=O)c2nc3c(n2C)CCN(C2CCC(C(=O)O)CC2)C3)c1Cl (stereo not shown) [Example 125, 4-(2-((2-chloro-2′-methyl-3′-(1-methyl-5-(tetrahydro-2H-pyran-4-yl)-4,5,6,7-tetrahydro-1H-imidazo[4,5-c]pyridine-2-carboxamido)-[1,1′-biphenyl]-3-yl)carbamoyl)-1-methyl-1,4,6,7-tetrahydro-5H-imidazo[4,5-c]pyridin-5-yl)cyclohexane-1-carboxylic acid]	≤ 10 nM
Cc1c(NC(=O)c2nc3c(n2C)CCNC3)cccc1-c1cccc(NC(=O)c2nc3c(n2C)CCN(CC[C@H]2CC[C@H](C(=O)O)CC2)C3)c1Cl [Example 126, trans-4-(2-(2-((2-chloro-2′-methyl-3′-(1-methyl-4,5,6,7-tetrahydro-1H-imidazo[4,5-c]pyridine-2-carboxamido)-[1,1′-biphenyl]-3-yl)carbamoyl)-1-methyl-1,4,6,7-tetrahydro-5H-imidazo[4,5-c]pyridin-5-yl)ethyl)cyclohexane-1-carboxylic acid]	≤ 10 nM
CCN1CCc2c(nc(C(=O)Nc3cccc(-c4cccc(NC(=O)c5nc6c(n5C)CCN(CC[C@H]5CC[C@H](C(=O)O)CC5)C6)c4Cl)c3C)n2C)C1 [Example 127, trans-4-(2-(2-((2-chloro-3′-(5-ethyl-1-methyl-4,5,6,7-tetrahydro-1H-imidazo[4,5-c]pyridine-2-carboxamido)-2′-methyl-[1,1′-biphenyl]-3-yl)carbamoyl)-1-methyl-1,4,6,7-tetrahydro-5H-imidazo[4,5-c]pyridin-5-yl)ethyl)cyclohexane-1-carboxylic acid]	≤ 10 nM
Cc1c(NC(=O)c2nc3c(n2C)CCN(CC2CC2)C3)cccc1-c1cccc(NC(=O)c2nc3c(n2C)CCN(CC[C@H]2CC[C@H](C(=O)O)CC2)C3)c1Cl [Example 128, trans-4-(2-(2-((2-chloro-3′-(5-(cyclopropylmethyl)-1-methyl-4,5,6,7-tetrahydro-1H-imidazo[4,5-c]pyridine-2-carboxamido)-2′-methyl-[1,1′-biphenyl]-3-yl)carbamoyl)-1-methyl-1,4,6,7-tetrahydro-5H-imidazo[4,5-c]pyridin-5-yl)ethyl)cyclohexane-1-carboxylic acid]	≤ 10 nM
Cc1c(NC(=O)c2nc3c(n2C)CCN(C(C)C)C3)cccc1-c1cccc(NC(=O)c2nc3c(n2C)CCN(CC[C@H]2CC[C@H](C(=O)O)CC2)C3)c1Cl [Example 129, trans-4-(2-(2-((2-chloro-3′-(5-isopropyl-1-methyl-4,5,6,7-tetrahydro-1H-imidazo[4,5-c]pyridine-2-carboxamido)-2′-methyl-[1,1′-biphenyl]-3-yl)carbamoyl)-1-methyl-1,4,6,7-tetrahydro-5H-imidazo[4,5-c]pyridin-5-yl)ethyl)cyclohexane-1-carboxylic acid]	≤ 10 nM
Cc1c(NC(=O)c2nc3c(n2C)CCN(C2CCCC2)C3)cccc1-c1cccc(NC(=O)c2nc3c(n2C)CCN(CC[C@H]2CC[C@H](C(=O)O)CC2)C3)c1Cl [Example 130, trans-4-(2-(2-((2-chloro-3′-(5-cyclopentyl-1-methyl-4,5,6,7-tetrahydro-1H-imidazo[4,5-c]pyridine-2-carboxamido)-2′-methyl-[1,1′-biphenyl]-3-yl)carbamoyl)-1-methyl-1,4,6,7-tetrahydro-5H-imidazo[4,5-c]pyridin-5-yl)ethyl)cyclohexane-1-carboxylic acid]	≤ 10 nM
Cc1c(NC(=O)c2nc3c(n2C)CCN(C2CCCCC2)C3)cccc1-c1cccc(NC(=O)c2nc3c(n2C)CCN(CC[C@H]2CC[C@H](C(=O)O)CC2)C3)c1Cl [Example 131, trans-4-(2-(2-((2-chloro-3′-(5-cyclohexyl-1-methyl-4,5,6,7-tetrahydro-1H-imidazo[4,5-c]pyridine-2-carboxamido)-2′-methyl-[1,1′-biphenyl]-3-yl)carbamoyl)-1-methyl-1,4,6,7-tetrahydro-5H-imidazo[4,5-c]pyridin-5-yl)ethyl)cyclohexane-1-carboxylic acid]	≤ 10 nM
Cc1c(NC(=O)c2nc3c(n2C)CCN(CCO)C3)cccc1-c1cccc(NC(=O)c2nc3c(n2C)CCN(CC[C@H]2CC[C@H](C(=O)O)CC2)C3)c1Cl [Example 132, trans-4-(2-(2-((2-chloro-3′-(5-(2-hydroxyethyl)-1-methyl-4,5,6,7-tetrahydro-1H-imidazo[4,5-c]pyridine-2-carboxamido)-2′-methyl-[1,1′-biphenyl]-3-yl)carbamoyl)-1-methyl-1,4,6,7-tetrahydro-5H-imidazo[4,5-c]pyridin-5-yl)ethyl)cyclohexane-1-carboxylic acid]	≤ 10 nM
Cc1c(NC(=O)c2nc3c(n2C)CCN(C2CCOCC2)C3)cccc1-c1cccc(NC(=O)c2nc3c(n2C)CCN(C[C@H]2CC[C@@H](C(=O)O)CC2)C3)c1Cl [Example 136, cis-4-((2-((2-chloro-2′-methyl-3′-(1-methyl-5-(tetrahydro-2H-pyran-4-yl)-4,5,6,7-tetrahydro-1H-imidazo[4,5-c]pyridine-2-carboxamido)-[1,1′-biphenyl]-3-yl)carbamoyl)-1-methyl-1,4,6,7-tetrahydro-5H-imidazo[4,5-c]pyridin-5-yl)methyl)cyclohexane-1-carboxylic Acid]	≤ 10 nM
C[C@H](O)CN1CCc2c(nc(C(=O)Nc3cccc(-c4cccc(NC(=O)c5nc6c(n5C)CCN(CC57CCC(C(=O)O)(CC5)C7)C6)c4Cl)c3Cl)n2C)C1 [Example 181, (S)-4-((2-(2,2′-dichloro-3′-(5-(2-hydroxypropyl)-1-methyl-4,5,6,7-tetrahydro-1H-imidazo[4,5-c]pyridine-2-carboxamido)biphenyl-3-ylcarbamoyl)-1-methyl-6,7-dihydro-1H-imidazo[4,5-c]pyridin-5(4H)-yl)methyl)bicyclo[2.2.1]heptane-1-carboxylic acid]	≤ 10 nM
C[C@@H](O)CN1CCc2c(nc(C(=O)Nc3cccc(-c4cccc(NC(=O)c5nc6c(n5C)CCN(CC57CCC(C(=O)O)(CC5)C7)C6)c4Cl)c3Cl)n2C)C1 [Example 182, (R)-4-((2-(2,2′-dichloro-3′-(5-(2-hydroxypropyl)-1-methyl-4,5,6,7-tetrahydro-1H-imidazo[4,5-c]pyridine-2-carboxamido)biphenyl-3-ylcarbamoyl)-1-methyl-6,7-dihydro-1H-imidazo[4,5-c]pyridin-5(4H)-yl)methyl)bicyclo[2.2.1]heptane-1-carboxylic acid]	≤ 10 nM
